Results on twelve compounds are retold here after ChEMBL document CHEMBL1130957, “Functional characteristics of a series of N4-substituted 1-(2,3-dihydro-1,4-benzodioxin-5-yl)piperazines as 5-HT1A receptor ligands. Structure-activity relationships” (Bioorg Med Chem Lett, 1998).

Test [1] concerns the target T1, 5-hydroxytryptamine receptor 1A (Homo sapiens) (UniProt P08908).
T1 sequence (whole entry): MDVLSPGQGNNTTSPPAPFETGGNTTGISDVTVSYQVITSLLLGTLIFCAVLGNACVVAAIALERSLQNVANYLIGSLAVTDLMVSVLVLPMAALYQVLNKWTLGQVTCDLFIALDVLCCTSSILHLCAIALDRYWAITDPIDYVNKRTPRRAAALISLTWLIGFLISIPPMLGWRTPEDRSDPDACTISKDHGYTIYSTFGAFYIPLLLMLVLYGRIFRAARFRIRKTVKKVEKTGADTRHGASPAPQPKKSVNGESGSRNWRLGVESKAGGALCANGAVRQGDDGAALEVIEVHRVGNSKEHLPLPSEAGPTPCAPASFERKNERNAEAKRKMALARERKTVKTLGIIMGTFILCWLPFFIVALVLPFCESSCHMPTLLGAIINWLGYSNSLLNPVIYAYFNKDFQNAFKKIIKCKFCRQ
The test can be described thus: Antagonistic efficacy as adenylyl cyclase assay in CHO cells expressing human 5-HT1A receptor (experiment 2). In kind it is functional, cell-based.

In test [2] the target is T1, 5-hydroxytryptamine receptor 1A (Homo sapiens). The test can be described thus: Agonistic efficacy as adenylyl cyclase assay in CHO cells expressing human 5-HT1A receptor (experiment 1). It is filed as functional, cell-based.
The target of test [3] is T2, 5-hydroxytryptamine receptor 1A (Rattus norvegicus, UniProt P19327).
T2 sequence (P19327 whole entry): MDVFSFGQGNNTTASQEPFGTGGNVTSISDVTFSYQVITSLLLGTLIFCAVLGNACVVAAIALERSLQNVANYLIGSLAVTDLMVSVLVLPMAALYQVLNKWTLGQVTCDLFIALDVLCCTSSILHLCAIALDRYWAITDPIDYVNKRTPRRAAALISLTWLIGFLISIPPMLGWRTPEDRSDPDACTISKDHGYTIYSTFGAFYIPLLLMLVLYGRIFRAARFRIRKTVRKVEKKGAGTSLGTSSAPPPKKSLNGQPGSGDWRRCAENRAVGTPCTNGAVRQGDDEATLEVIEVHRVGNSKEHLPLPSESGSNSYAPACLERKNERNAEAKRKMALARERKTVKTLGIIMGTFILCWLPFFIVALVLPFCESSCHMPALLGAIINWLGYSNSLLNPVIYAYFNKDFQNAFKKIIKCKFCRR
Description: Inhibition of [3H]8-OH-DPAT binding to 5-hydroxytryptamine 1A receptor of rat frontal cortex membranes

The target in test [4] is T1, 5-hydroxytryptamine receptor 1A (Homo sapiens). As to the kind of experiment: Agonistic efficacy in adenylyl cyclase assay in CHO cells expressing human 5-HT1A receptor (experiment 2). In kind it is functional, cell-based.
Test [5] has the same target. The test can be described thus: Antagonistic efficacy as adenylyl cyclase assay in CHO cells expressing human 5-HT1A receptor (experiment 1). In kind it is functional, cell-based.
The target in test [6] is T3, 5-hydroxytryptamine receptor 1A (Homo sapiens, UniProt P08908).
T3 sequence (P08908 whole entry): T1 sequence (whole entry)
The test can be described thus: Compound was tested for its potency against human 5-hydroxytryptamine 1A receptor expressed in CHO cells (experiment 2). It is filed as functional, cell-based.

Test [7] concerns the target T2, 5-hydroxytryptamine receptor 1A. As to the kind of experiment: (§1) Compound was tested for its potency against 5-hydroxytryptamine 1A receptor in rat frontal cortex membranes (experiment 2). In kind it is cell membranes, Membrane. To be noted: read-out: pA2 (converted).
Test [8] concerns the target T3, 5-hydroxytryptamine receptor 1A. As to the kind of experiment: Potency against human 5-hydroxytryptamine 1A receptor expressed in CHO cells (experiment 1). It is filed as functional, cell-based.
The target of test [9] is T1, 5-hydroxytryptamine receptor 1A (Homo sapiens). As to the kind of experiment: Antagonistic efficacy was evaluated by adenylyl cyclase assay in CHO cells stably expressing the human 5-HT1A receptor. In kind it is functional, cell-based.
Test [10] has as its target T3, 5-hydroxytryptamine receptor 1A.
Test [11] has the same target. As to the kind of experiment: Compound was tested for its potency against 5-hydroxytryptamine 1A receptor expressed in CHO cells (experiment 2). In kind it is functional, cell-based.
In test [12] the target is T1, 5-hydroxytryptamine receptor 1A (Homo sapiens). The test can be described thus: Antagonistic efficacy was evaluated by adenylyl cyclase assay in CHO cells stably expressing the human 5-HT1A receptor (experiment 1). In kind it is functional, cell-based.
The target is the same in test [13]. The test can be described thus: Antagonistic efficacy was evaluated by adenylyl cyclase assay in CHO cells stably expressing the human 5-HT1A receptor (experiment 2). It is filed as functional, cell-based.
For test [14] the target is unchanged. The test can be described thus: Agonistic efficacy was evaluated by adenylyl cyclase assay in CHO cells stably expressing the human 5-HT1A receptor (experiment 2). It is filed as functional, cell-based.
The target in test [15] is T2, 5-hydroxytryptamine receptor 1A. As to the kind of experiment: Compound was tested for its potency against 5-hydroxytryptamine 1A receptor in rat frontal cortex membranes (experiment 1). It is filed as cell membranes, Membrane. To be noted: read-out: pA2 (converted).
For test [16] the target is unchanged. Described as §1. In kind it is functional, cell membranes, Membrane. The following applies: read-out: pA2 (converted).

A word on the Ki: it is a measure of affinity in units of concentration, obtained from inhibition or displacement. For the compound `O=C1c2ccccc2C(=O)N1CCN1CCN(c2cccc3c2OCCO3)CC1`, the Efficacy in [1] was found to be 2%; in test [2], 0%; in [4] it was 30%; in test [5], 0%. This compound also showed an inhibition constant (Ki) in test [3] of 31.6 nM.
What is called EC50 is the concentration needed to bring the measured effect to its halfway point. A high value points to lower potency in that assay. Turning to `c1ccc(CCCCN2CCN(c3cccc4c3OCCO4)CC2)cc1`, the Efficacy in [1] came out at 70%; in test [2], 45%; in test [4], 50%; in test [5], 74%. The results for the EC50 in [6] and in [8] were 6.03 nM and 6.76 nM, respectively. In addition, the Kb in [7] is 25.1 nM.
As for `O=C(NCCN1CCN(c2cccc3c2OCC(CO)O3)CC1)c1ccc(F)cc1` (single isomer, unassigned) [FLESINOXAN], the Efficacy in test [9] came out at 0%. For the same compound, in [10], the EC50 is 6.61 nM.
Take `O=C1c2ccccc2S(=O)(=O)N1CCN1CCN(c2cccc3c2OCCO3)CC1`: the Efficacy in test [1] stood at 0%; in test [2], 97%; in test [4] it was 86%; in [5], 0%. For the same compound, the EC50 in test [11] is 631 nM; in test [8], 251 nM. In addition, in test [3], the Ki is 1.23 nM.
Regarding `O=C(CCCN1CCN(c2cccc3c2OCCO3)CC1)c1ccc(F)cc1`, the Efficacy in [1] stood at 42%; in test [2], 50%; in test [4] it was 48%; in test [5], 22%. Also, the concentration giving a half-maximal response (EC50) was 7.41 nM in test [6] and 5.25 nM in test [8]. Besides, the affinity in test [3] corresponds to a Ki of 1.35 nM.
Regarding `O=C(CCCN1CCN(c2cccc3c2OCCO3)CC1)c1ccccc1`, the Efficacy was found to be 71% in test [2], 33% in test [12], 18% in [13] and 67% in test [14]. In addition, the EC50 in test [6] was 2.82 nM; in [8] it was 2.88 nM.
In [9], `O=C1c2ccccc2S(=O)(=O)N1CCCCN1CCN(c2ncccn2)CC1` [IPSAPIRONE] registered an Efficacy of 0%. Further, the EC50 in test [10] was 67.6 nM.
As for `O=C(NCCCCN1CCN(c2cccc3c2OCCO3)CC1)c1ccc(F)cc1`, the Efficacy was 0% in [1], 81% in test [2], 85% in test [4] and 17% in test [5]. Moreover, the EC50 in [6] was 31.6 nM; in test [8], 12.6 nM. The compound also showed an inhibition constant (Ki) in test [3] of 1.05 nM.
Consider `O=C(NCCN1CCN(c2cccc3c2OCCO3)CC1)c1ccc(F)cc1`, for which the Efficacy was determined as 0% in test [1], 97% in test [2], 97% in test [4] and 0% in test [5]. For the same compound, the 50% effective concentration (EC50) in test [6] is 0.851 nM; in test [8] it was 0.955 nM. The same compound had a Ki in test [3] of 0.295 nM.
Regarding `O=C1c2ccccc2C(=O)N1CCCCN1CCN(c2cccc3c2OCCO3)CC1`, the Efficacy in test [1] is 62%; in test [2], 44%; in [4] it was 49%; in test [5] it was 55%. Further, the results for the EC50 in test [6] and in [8] were 5.75 nM and 1.35 nM, respectively. The Kb in test [7] is 0.676 nM; in test [15], 0.661 nM. Besides, the affinity in test [3] corresponds to a Ki of 0.229 nM.
Regarding `O=C1c2ccccc2S(=O)(=O)N1CCCCN1CCN(c2cc(Cl)cc3c2OCCO3)CC1` [DU 125530], the Efficacy in test [1] was determined as 100%; in test [2] it was 0%; in test [4] it was 0%; in test [5], 100%. In addition, the Kb in test [16] is 0.288 nM. This compound also had an inhibitory constant (Ki) in [3] of 0.708 nM.
In the case of `O=C1c2ccccc2S(=O)(=O)N1CCCCN1CCN(c2cccc3c2OCCO3)CC1`, the Efficacy in [1] amounted to 65%; in test [2], 11%; in test [4], 23%; in [5], 68%. Moreover, the Kb in test [16] was 0.363 nM. For the same compound, in test [3], the Ki is 0.288 nM.
